{
  "source": "patent US20240299334A1",
  "about": "“PHARMACEUTICAL COMPOSITION OF NAPHTHALENE DERIVATIVES AS MULTI-TARGETED THERAPEUTIC AGENTS FOR THE TREATMENT OF ALZHEIMER'S DISEASE” (CENTRO DE NEUROCIENCIAS DE CUBA, CNEURO, priority 2020, published 2024)",
  "key": {"[1]": {"system": "memory loss induced by an acute administration of scopolamine (ESC)", "assay": "Y-maze, short-term spatial memory, acute scopolamine (ESC) model", "format": "in vivo, mice", "description": "Young male OF-1 mice (20-25 g), supplied by the National Center for the Laboratory Animals Production (CENPALAB, Cuba), were used. Before the experiment, the animals were adapted for seven days to laboratory conditions (controlled temperature 25±2° C., relative humidity 60±10% and light/dark cycles of 12 h). During this period, and during the experiment, the animals received ad libitum water and a standard diet for rodents supplied by CENPALAB. All procedures were carried out in accordance with the European Commission guidelines for the use and care of laboratory animals and approved by the Committee for the Care of Research Animals. The minimum number of animals and duration of observations required to obtain consistent data was used.\nAt the end of the adaptation period, the animals were randomly distributed according to their body weights in 5 experimental groups of 12 animals per group. Scopolamine hydrobromohydrate (ESC, Sigma Aldrich) was used to induce cognitive deficit, which was dissolved in physiological saline and administered intraperitoneally (ip) at a dose of 1.5 mg/kg, 30 minutes before the test (Miranda H F et al. in. J. Biomed. Sci., 2014 21 (1): 62-62). The doses of compound 3 used were 0.1, 1, 10 and 20 mg/kg of body weight. The compound was formulated using carboxymethyl cellulose (CMC). The administration scheme was designed as follows:\nGroup 1 (negative control) with normal cognitive function. Two administrations with an interval of 30 minutes with vehicle (5% CMC) by oral route and saline solution by i.p. route, respectively.\nGroup 2 (positive control) with cognitive dysfunction. Two administrations with an interval of 30 minutes, the first with vehicle (5% CMC), the second with ESC 1 mg/kg.\nGroup 3, 4, 5 and 6 treated with 3 (0.1, 1, 10 and 20 mg/kg). Two administrations with an interval of 30 minutes, the first with 3 at the dose corresponding to each group, the second with ESC 1 mg/kg. The behavioral evaluation was carried out 30 minutes after this second administration.\nThe study of short-term spatial memory was carried out through the study of novel spatial preference, using the Y-maze behavioral paradigm (40 cm long×9 cm wide×16 cm high) with extra-labyrinthine tracks around of the maze. The test consisted of two trials separated by an interval of 2 hours. In the first training test (acquisition), the mice were placed in the center of the maze and facing the end of one of the arms whose selection was random. After being positioned, they were allowed to explore the maze for 10 minutes with one of the arms closed (novel arm). At the end of this test, the mice were returned to their original cage until the second test (recovery), during which they could freely explore the three arms of the maze for 5 minutes. The total residence time (exploration) in each arm was measured and analyzed from video recordings. The entrance to the arm was defined as the entrance of the four legs of the animal in said arm. The residence time (sec) in each arm during the recovery test of the learned task was used for the statistical analysis. The maze was cleaned with 70% ethanol between runs. All mice were transported to the behavioral testing room in their home cages at least 1 day prior to testing. The experiments were carried out between 8:00 am and 12:30 pm.\nAll data are expressed as the mean±standard error of the mean (SEM). The Morris water maze data was analyzed in two ways. Escape latencies in the visible platform training phase were analyzed using a two-factor ANOVA (treatment×trial). For the study of long-term memory, the last escape latency value of the training phase with the visible platform (D1 V4) and the first value of the test with the hidden platform performed 24 h later (D2T1) were used. Mice with intact long-term memory capacity should quickly reach the hidden platform in the first test. A scoring system was generated with the difference D2T1−D1 V4 and with the ratio D2T1/D1V4. […]"}, "[2]": {"system": "mitochondria isolated from rat liver", "assay": "Mitochondrial swelling induced by Ca2+ and Pi (absorbance 540 nm)", "format": "biochemical", "settings": "induced by 50 μmol/L Ca2+ and 2 mmol/L Pi; similar concentrations (0.1-100 μmol/L)", "source_text": "In this case, it was observed that in the control group (in the presence of Ca^2+) the maximum absorbance values are shown, as a measure of maximum swelling. […] These effects correspond to the observed effects on the dissipation of the mitochondria membrane potential.\nIsolation of rat mitochondria: Mitochondria were isolated by the classical method of differential centrifugation from the liver of male Wistar rats (Mirandola S R, et al., in J Neurosci Res 2010; 88: 630-39). […]\n(§1) Mitochondrial membrane potential and ROS were determined by spectrophotometry, using as fluorescent probes, respectively, safranin (10 μmol/L) (Zanotti A., and Azzone G F in Archives of Biochemistry and Biophysics 1980, 201 (1), 255-265) and Amplex Red (Molecular Probes, OR, Eugene) in the presence of horseradish peroxidase (1 IU/mL) (Votyakova and Reynolds, in J Neurochem. 2001, 79 (2), 266-77). Measurements were made in a Hitachi fluorescence spectrophotometer, model F-4500 (Tokyo, Japan) at λexc 495/λem 586 nm (safranin) and at λexc 563/λem 587 nm (Amplex Red). […]\nData analysis: In all cases, the normal distribution and homogeneity of variances of the data were evaluated using the Kolmogorov Smirnov and Levene tests, respectively. […]"}, "[3]": {"system": "mitochondria isolated from rat liver", "assay": "Production of H2O2 / reactive oxygen species (Amplex Red) in isolated mitochondria", "format": "biochemical", "settings": "dose range tested (0.1-100 μmol/L)", "description": "Isolation of rat mitochondria: Mitochondria were isolated by the classical method of differential centrifugation from the liver of male Wistar rats (Mirandola S R, et al., in J Neurosci Res 2010; 88: 630-39).\nIncubation procedures: Mitochondria were energized with 5 mmol/L potassium succinate (plus 2.5 μmol/L rotenone) in standard incubation medium containing 125 mmol/L sucrose, 65 mmol/L KCl and 10 mmol/L of HEPES-KOH, pH 7.4, at 30° C.\nas §1, with “Red). These experiments were carried out in the presence of 0.1 mmol/L of EGTA and the evaluated compound was N-[4-(1-naphthylamino)-4-oxobutanoyl]-β-alanine (1) in a concentration range of 0.1 to 100 μmol/L. Mitochondrial swelling was estimated spectrophotometrically from the decrease in absorbance at 540 nm, using a Hitachi spectrophotometer, Model U-2910 (Japan).” for “Red).”"}},
  "data": [
    {"smiles": "CN1[C@@H]2C[C@@H](OC(=O)[C@H](CO)c3ccccc3)C[C@H]1[C@@H]1O[C@@H]12", "note": "[ESC, Scopolamine hydrobromohydrate, reference compound]", "values": [
      {"measurement": "residence time in the novel arm", "setting": "[1]; ESC group (control group 133.8±9.3 sec), p<0.001", "value": "98.8 ± 4.2", "unit": "s"}
    ]},
    {"smiles": "O=C(O)CCNC(=O)CCC(=O)Nc1cccc2ccccc12", "note": "[compound 1, N-[4-(1-naphthylamino)-4-oxobutanoyl]-β-alanine]", "values": [
      {"measurement": "mitochondrial swelling (absorbance at 540 nm)", "setting": "[2]", "value": "reverses the effect of Ca^2+-induced swelling"},
      {"measurement": "production of hydrogen peroxide (H2O2)", "setting": "[3]", "value": "protects against H2O2 production"}
    ]},
    {"smiles": "COc1cc2c(cc1OC)C(=O)C(CC1CCN(Cc3ccccc3)CC1)C2", "note": "(centres unmarked) [donepezil, reference compound]", "values": [
      {"measurement": "deficit induced by ESC in Y-maze", "setting": "[1]; donepezil 1 mg/kg, ip, 30 minutes before the test", "value": "also reversed the deficit induced by ESC"},
      {"measurement": "residence time in the novel arm", "setting": "[1]; donepezil group vs ESC", "value": "significantly longer than that of ESC"}
    ]}
  ]
}
